The source of these data is patent US20220267281A1, “UNSATURATED HETEROCYCLOALKYL AND HETEROAROMATIC ACYL HYDRAZONE LINKERS, METHODS AND USES THEREOF” (priority 2019, published 2022).

The experiment has as its system SKOV3 ovarian cells. Briefly: Cytotoxicity of ADCs against SKOV3 cell lines (viable cells by ATP content, CellTiter-Glo). It is filed as cell-based. To be noted: SKOV3 ovarian cancer cells, 3 to 5 days incubation with ADC, % survival curve fit.

Procedure: The cytotoxic activity of Trastuzumab ADCs of Formula (IV) was tested against SKOV3 ovarian cell lines
SKOV3 ovarian cells were incubated with the effectors for a period corresponding to 2 to 3 times their estimated doubling time and the amount of viable cells was determine by measuring ATP content in the wells. […] All ADCs were diluted in DPBS to 6× the highest concentration tested, followed by 10 3-fold serial dilutions in DPBS for a total of 11 concentration points. Each point was added to triplicate wells. DPBS was added in wells to measure the maximum growth. Cells were diluted at their appropriate seeding density (ranging from 150 to 1000 cells per well) in complete media supplemented with glutamine 2 mM, serum and antibiotic cocktail. […] Total ATP was measured using CellTiter-Glo™ reagent from Promega as recommended by the supplier. […] Signal output was measured on a luminescence plate reader (Envision™, Perkin Elmer) set at an integration time of 0.1 sec. […]
Each concentration point (S) was normalized to the negative control wells (NC) and expressed as % survival (NC-S/NC×100). Potency (IC50) and efficacy were calculated from a non-linear curve fit of the points versus log of the concentrations without constrain on the slope. Refined data were analysed using Prism™ software.

The term IC50 denotes the concentration needed to halve the response being measured. Turning to Synagis-SMCC-DM1: negative control ADC, the IC50 amounted to 4.01 nM.
